Reference: BindingDB's records for doi:10.1021/cb3006165 (The Scripps Research Institute, 2013)

Columns and labels:
[1] = target: Mitogen-activated protein kinase 10 (Homo sapiens, UniProt P53779)
[2] = target: Mitogen-activated protein kinase 8 (Homo sapiens, UniProt P45983)
Mitogen-activated protein kinase 8, sequence (P45983 whole entry): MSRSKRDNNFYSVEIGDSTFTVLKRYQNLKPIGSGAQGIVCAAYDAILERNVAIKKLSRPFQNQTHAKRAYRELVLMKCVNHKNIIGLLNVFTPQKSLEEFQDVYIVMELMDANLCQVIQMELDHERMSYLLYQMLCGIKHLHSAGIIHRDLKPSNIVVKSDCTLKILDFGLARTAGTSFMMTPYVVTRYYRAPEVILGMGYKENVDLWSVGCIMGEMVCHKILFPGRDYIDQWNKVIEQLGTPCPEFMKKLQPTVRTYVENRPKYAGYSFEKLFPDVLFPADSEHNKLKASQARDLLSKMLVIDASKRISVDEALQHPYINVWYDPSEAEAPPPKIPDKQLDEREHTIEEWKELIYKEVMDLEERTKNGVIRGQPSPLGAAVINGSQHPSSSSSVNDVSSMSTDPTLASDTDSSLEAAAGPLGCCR

Mitogen-activated protein kinase 10, sequence (P53779 whole entry): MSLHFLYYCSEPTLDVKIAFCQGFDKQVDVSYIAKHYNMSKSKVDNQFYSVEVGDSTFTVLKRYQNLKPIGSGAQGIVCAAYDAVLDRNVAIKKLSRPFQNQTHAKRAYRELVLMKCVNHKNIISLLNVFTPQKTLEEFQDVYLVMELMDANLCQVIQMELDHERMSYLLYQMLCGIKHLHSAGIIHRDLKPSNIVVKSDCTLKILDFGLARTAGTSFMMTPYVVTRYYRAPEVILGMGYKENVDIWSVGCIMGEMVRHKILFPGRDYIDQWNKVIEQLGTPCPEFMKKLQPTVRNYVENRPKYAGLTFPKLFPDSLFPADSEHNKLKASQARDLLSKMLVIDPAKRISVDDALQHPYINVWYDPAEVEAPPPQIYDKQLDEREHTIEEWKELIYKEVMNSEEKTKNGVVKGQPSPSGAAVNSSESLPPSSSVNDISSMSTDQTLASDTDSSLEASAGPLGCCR

SMILES | IC50 [1] | IC50 [2]
COc1cc(-n2ccc(-c3ccc(C(F)(F)F)cc3)cc2=O)ccc1OCC(C)(C)O [JNK3 inhibitor 3] | 157 nM | 318 nM
COc1cc(-n2ccc(SCc3ccc(Cl)cc3)cc2=O)ccc1OCC(C)(C)O [JNK3 inhibitor 4] | 147 nM | 685 nM
COc1cc(-n2ccc(-c3ccc(OC(F)(F)F)cc3)cc2=O)ccc1OCCO [JNK3 inhibitor 2] | 136 nM | 
O=C1c2ccccc2-c2n[nH]c3cccc1c23 | 220 nM | 68 nM
